22 compounds from patent US20080200454A1, “CARBON-LINKED TETRAHYDRO-PYRAZOLO-PYRIDINE MODULATORS OF CATHEPSIN S” (priority 2007, published 2008) can be followed below.

Recombinant human cathepsin S (CatS), sequence (P25774 115-331): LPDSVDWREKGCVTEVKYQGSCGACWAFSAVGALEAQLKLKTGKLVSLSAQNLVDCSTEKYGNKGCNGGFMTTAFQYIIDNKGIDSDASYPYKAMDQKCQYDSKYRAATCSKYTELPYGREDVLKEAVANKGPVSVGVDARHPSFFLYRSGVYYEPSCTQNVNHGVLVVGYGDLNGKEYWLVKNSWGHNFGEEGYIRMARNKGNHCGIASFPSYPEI

The first test has as its target Recombinant human cathepsin S (CatS) (Homo sapiens, UniProt P25774). Description: Recombinant human cathepsin S (CatS) inhibition assay, fluorogenic substrate Z-Valine-Valine-Arginine-AMC.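 Also: Baculovirus-expressed CatS in pH 5.0 sodium acetate buffer with DTT and NaCl, fluorescence read each minute over 20 min, inhibition derived from rate slope.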
Conditions: not given
Consider `CC(C)(C)OC(=O)NC1CCN(CC(O)Cn2nc(-c3ccc(C(F)(F)F)c(C#Cc4ccc(Cl)cc4)c3)c3c2CCN(S(C)(=O)=O)C3)CC1` (stereo not shown) [Example 121, [1-(3-{3-[3-(4-Chloro-phenylethynyl)-4-trifluoromethyl-phenyl]-5-methanesulfonyl-4,5,6,7-tetrahydro-pyrazolo[4,3-c]pyridin-1-yl}-2-hydroxy-propyl)-piperidin-4-yl]-carbamic acid tert-butyl ester], for which the IC50 was found to be 150 nM.

Turning to `CS(=O)(=O)N1CCc2c(c(-c3ccc(Cl)c(C#Cc4ccc(CN[C@@H]5Cc6ccccc6[C@@H]5O)cc4)c3)nn2CCCN2CCOCC2)C1` [Example 445, (1S,2R)-2-({[4-({2-Chloro-5-[5-(methylsulfonyl)-1-(3-morpholin-4-ylpropyl)-4,5,6,7-tetrahydro-1H-pyrazolo[4,3-c]pyridin-3-yl]phenyl}ethynyl)phenyl]methyl}amino)-2,3-dihydro-1H-inden-1-ol], the IC50 was found to be 200 nM. Same read-out and setting: for `CS(=O)(=O)N1CCc2c(c(-c3ccc(Cl)c(/C=C/c4ccccc4)c3)nn2CCCN2CCOCC2)C1` [Example 68, 3-(4-Chloro-3-E-styryl-phenyl)-5-methanesulfonyl-1-(3-morpholin-4-yl-propyl)-4,5,6,7-tetrahydro-1H-pyrazolo[4,3-c]pyridine] the value was 2850 nM; for `C[C@H]1COCCN1CCCn1nc(-c2ccc(Cl)c(CCc3ccc(CNCc4ccc(Cl)cc4)cc3)c2)c2c1CCN(C(=O)C(N)=O)C2` [Example 243, 2-[3-(4-Chloro-3-{2-[4-({[(4-chlorophenyl)methyl]amino}methyl)phenyl]ethyl}phenyl)-1-{3-[(3S)-3-methylmorpholin-4-yl]propyl}-1,4,6,7-tetrahydro-5H-pyrazolo[4,3-c]pyridin-5-yl]-2-oxoacetamide], 40 nM. Take `CS(=O)(=O)N1CCc2c(c(-c3ccc(Cl)c(C#Cc4ccc(Cl)cc4)c3)nn2CC(O)CN2CCOCC2)C1` (stereo not shown) [Example 124, 1-{3-[4-Chloro-3-(4-chloro-phenylethynyl)-phenyl]-5-methanesulfonyl-4,5,6,7-tetrahydro-pyrazolo[4,3-c]pyridin-1-yl}-3-morpholin-4-yl-propan-2-ol]: the IC50 was determined as 150 nM.

As for `CCN(CC)CC#Cc1cc(-c2nn(C[C@@H](O)CN3CCC(C4CCN(C(=O)OC(C)(C)C)CC4)CC3)c3c2CN(S(C)(=O)=O)CC3)ccc1Cl` [Example 236, 1,1-Dimethylethyl 1′-{(2S)-3-[3-{4-chloro-3-[3-(diethylamino)prop-1-yn-1-yl]phenyl}-5-(methylsulfonyl)-4,5,6,7-tetrahydro-1H-pyrazolo[4,3-c]pyridin-1-yl]-2-hydroxypropyl}-4,4′-bipiperidine-1-carboxylate], the IC50 came out at 7130 nM.

On to `CC(C)N1CCc2ccc(C#Cc3cc(-c4nn(CCCN5CCOC[C@@H]5C)c5c4CN(S(C)(=O)=O)CC5)ccc3Cl)cc2C1` [Example 279, 7-({2-Chloro-5-[1-{3-[(3S)-3-methylmorpholin-4-yl]propyl}-5-(methylsulfonyl)-4,5,6,7-tetrahydro-1H-pyrazolo[4,3-c]pyridin-3-yl]phenyl}ethynyl)-2-(1-methylethyl)-1,2,3,4-tetrahydroisoquinoline], for which the IC50 came out at 110 nM.

For `NC(=O)C(=O)N1CCc2c(c(-c3ccc(Cl)c(C#Cc4ccc(Cl)c(C(=O)NCCCO)c4)c3)nn2CCCN2CCSCC2)C1` [Example 554, 5-[(5-{5-[Amino(oxo)acetyl]-1-(3-thiomorpholin-4-ylpropyl)-4,5,6,7-tetrahydro-1H-pyrazolo[4,3-c]pyridin-3-yl}-2-chlorophenyl)ethynyl]-2-chloro-N-(3-hydroxypropyl)benzamide], the IC50 stood at 20 nM. The same measure, in the same setting: for `C[C@@H]1COCCN1CCCn1nc(-c2ccc(Cl)c(C#Cc3ccc(CNCc4ccc(Cl)cc4)cc3)c2)c2c1CCN(C(=O)C(N)=O)C2` [Example 620, 2-(3-{4-Chloro-3-[(4-{[(4-chlorobenzyl)amino]methyl}phenyl)ethynyl]phenyl}-1-{3-[(3R)-3-methylmorpholin-4-yl]propyl}-1,4,6,7-tetrahydro-5H-pyrazolo[4,3-c]pyridin-5-yl)-2-oxoacetamide] the value was 150 nM.

Staying with this test, now noted: CatS IC50.
In the case of `C[C@H]1COC[C@H](C)N1CCCn1nc(-c2ccc(Cl)c(C#Cc3ccc(CNCc4ccc(Cl)cc4)cc3)c2)c2c1CCN(C(=O)C(N)=O)C2` [Example 157, 2-(3-{4-Chloro-3-[(4-{[(4-chlorobenzyl)amino]methyl}phenyl)ethynyl]phenyl}-1-{3-[(3S,5S)-3,5-dimethylmorpholin-4-yl]propyl}-1,4,6,7-tetrahydro-5H-pyrazolo[4,3-c]pyridin-5-yl)-2-oxoacetamide], the IC50 was determined as 40 nM.

As for `CS(=O)(=O)N1CCc2c(c(-c3ccc(Cl)c(C#Cc4ccc(C(F)(F)F)cc4)c3)nn2CCCN2CCOCC2)C1` [Example 30, 3-[4-Chloro-3-(4-trifluoromethyl-phenylethynyl)-phenyl]-5-methanesulfonyl-1-(3-morpholin-4-yl-propyl)-4,5,6,7-tetrahydro-1H-pyrazolo[4,3-c]pyridine], the IC50 turned out to be 430 nM. `NC(=O)N1CCc2c(c(-c3ccc(Cl)c(C#Cc4ccc(CNCc5ccc(Cl)cc5)cc4)c3)nn2CCCN2CCCC2)C1` [Example 453, 3-(4-Chloro-3-{[4-({[(4-chlorophenyl)methyl]amino}methyl)phenyl]ethynyl}phenyl)-1-(3-pyrrolidin-1-ylpropyl)-1,4,6,7-tetrahydro-5H-pyrazolo[4,3-c]pyridine-5-carboxamide]: the IC50 amounted to 140 nM. Regarding `CS(=O)(=O)N1CCc2c(c(-c3ccc(Cl)c(C#Cc4ccc(CNCC(F)(F)F)cc4)c3)nn2CCCN2CCC(N3CCCC3=O)CC2)C1` [Example 348, 1-(1-{3-[3-{4-Chloro-3-[(4-{[(2,2,2-trifluoroethyl)amino]methyl}phenyl)ethynyl]phenyl}-5-(methylsulfonyl)-4,5,6,7-tetrahydro-1H-pyrazolo[4,3-c]pyridin-1-yl]propyl}piperidin-4-yl)pyrrolidin-2-one], the IC50 is 100 nM.

For the compound `NC(=O)N1CCc2c(c(-c3ccc(Cl)c(C#Cc4ccc(Cl)c(CNC5CC5)c4)c3)nn2CCCN2CCCCC2)C1` [Example 596, 3-[4-Chloro-3-({4-chloro-3-[(cyclopropylamino)methyl]phenyl}ethynyl)phenyl]-1-(3-piperidin-1-ylpropyl)-1,4,6,7-tetrahydro-5H-pyrazolo[4,3-c]pyridine-5-carboxamide], the IC50 was determined as 30 nM. Same read-out and setting: for `Cc1cc(CNCc2ccc(C#Cc3cc(-c4nn(CCCN5CCOCC5)c5c4CN(S(C)(=O)=O)CC5)ccc3Cl)cc2)c(C(F)(F)F)o1` [Example 426, 1-[4-({2-Chloro-5-[5-(methylsulfonyl)-1-(3-morpholin-4-ylpropyl)-4,5,6,7-tetrahydro-1H-pyrazolo[4,3-c]pyridin-3-yl]phenyl}ethynyl)phenyl]-N-{[5-methyl-2-(trifluoromethyl)furan-3-yl]methyl}methanamine] the value was 390 nM; for `CN1CCN(CCCn2nc(-c3ccc(Cl)c(C#Cc4ccc(CNCc5ccc(Cl)cc5)cc4)c3)c3c2CCN(S(C)(=O)=O)C3)CC1` [Example 354, 1-{4-[(2-Chloro-5-{1-[3-(4-methylpiperazin-1-yl)propyl]-5-(methylsulfonyl)-4,5,6,7-tetrahydro-1H-pyrazolo[4,3-c]pyridin-3-yl}phenyl)ethynyl]phenyl}-N-[(4-chlorophenyl)methyl]methanamine], 360 nM; for `CS(=O)(=O)N1CCc2c(c(-c3ccc(Cl)c(C#Cc4ccc(CNCc5ccc(Cl)cc5)cc4)c3)nn2CCCN2CCC(C(=O)O)CC2)C1` [Example 336, 1-{3-[3-(4-Chloro-3-{[4-({[(4-chlorophenyl)methyl]amino}methyl)phenyl]ethynyl}phenyl)-5-(methylsulfonyl)-4,5,6,7-tetrahydro-1H-pyrazolo[4,3-c]pyridin-1-yl]propyl}piperidine-4-carboxylic acid], 150 nM. Still for that read-out and setting: for `CS(=O)(=O)N1CCc2c(c(-c3ccc(Cl)c(C#Cc4ccc(CN5CCCC5)cc4)c3)nn2CCCN2CCOCC2)C1` [Example 78, 3-[4-Chloro-3-(4-pyrrolidin-1-ylmethyl-phenylethynyl)-phenyl]-5-methanesulfonyl-1-(3-morpholin-4-yl-propyl)-4,5,6,7-tetrahydro-1H-pyrazolo[4,3-c]pyridine] the value was 1400 nM; for `CS(=O)(=O)N1CCc2c(c(-c3ccc(Cl)c(C#Cc4ccc(CNCc5cccs5)cc4)c3)nn2CCCN2CCOCC2)C1` [Example 421, 1-[4-({2-Chloro-5-[5-(methylsulfonyl)-1-(3-morpholin-4-ylpropyl)-4,5,6,7-tetrahydro-1H-pyrazolo[4,3-c]pyridin-3-yl]phenyl}ethynyl)phenyl]-N-(2-thienylmethyl)methanamine], 190 nM; for `CS(=O)(=O)N1CCc2c(c(-c3ccc(Cl)c(C#Cc4ccc(CNCc5nccs5)cc4)c3)nn2CCCN2CCOCC2)C1` [Example 456, 1-[4-({2-Chloro-5-[5-(methylsulfonyl)-1-(3-morpholin-4-ylpropyl)-4,5,6,7-tetrahydro-1H-pyrazolo[4,3-c]pyridin-3-yl]phenyl}ethynyl)phenyl]-N-(1,3-thiazol-2-ylmethyl)methanamine], 120 nM.

As to `CS(=O)(=O)N1CCc2c(c(-c3ccc(Cl)c(C#Cc4ccc5c(c4)CN[C@@H](C(=O)N4CCOCC4)C5)c3)nn2CCCN2CCOCC2)C1` [Example 541, (3R)-7-({2-Chloro-5-[5-(methylsulfonyl)-1-(3-morpholin-4-ylpropyl)-4,5,6,7-tetrahydro-1H-pyrazolo[4,3-c]pyridin-3-yl]phenyl}ethynyl)-3-(morpholin-4-ylcarbonyl)-1,2,3,4-tetrahydroisoquinoline], the IC50 came to 960 nM.

The same test, now with this note: CatS IC50, Table 2; average of results obtained.
Regarding `CS(=O)(=O)N1CCc2c(c(-c3ccc(Cl)c(C#Cc4cccc(C(F)(F)F)c4)c3)nn2CCCN2CCOCC2)C1` [Example 36, 3-[4-Chloro-3-(3-trifluoromethyl-phenylethynyl)-phenyl]-5-methanesulfonyl-1-(3-morpholin-4-yl-propyl)-4,5,6,7-tetrahydro-1H-pyrazolo[4,3-c]pyridine], the IC50 was 1450 nM.

By IC50 is commonly meant the concentration needed to halve the response being measured.
